Laboratory results published in ChEMBL document CHEMBL3046708, “The effect of pyridazine compounds on the cardiovascular system” (Med Chem Res, 2012).

Columns and labels:
Sus scrofa [1] = assay: Cardiotoxicity in Sus scrofa (pig) assessed as increase in maximum rate of rise of left ventricular pressure at 0.05 to 0.5 ug/kg/min administered as 10 min infusion; type: toxicity, organism-based, Heart left ventricle; conditions: in vivo, iv
Sus scrofa [2] = assay: Cardiotoxicity in iv dosed Sus scrofa (pig) assessed as effect on maximum rate of rise of left ventricular pressure administered as infusion; type: toxicity, organism-based, Heart left ventricle; conditions: in vivo
Sus scrofa [3] = assay: Cardiotoxicity in Sus scrofa (pig) assessed as increase in maximum rate of rise of left ventricular pressure at 2.5 to 25 ug/kg/min administered as 10 min infusion; type: toxicity, organism-based, Heart left ventricle; conditions: in vivo, iv
Sus scrofa [4] = assay: Cardiotonic activity in iv dosed Sus scrofa (pig) assessed as change in left ventricular systolic pressure administered as infusion; type: functional, Heart left ventricle
Sus scrofa [5] = assay: Cardiotonic activity in iv dosed Sus scrofa (pig) assessed as change in heart rate administered as infusion; type: functional
Sus scrofa [6] = assay: Cardiotonic activity in iv dosed Sus scrofa (pig) assessed as change in left ventricular filling pressure administered as infusion; type: functional, Heart left ventricle

| SMILES | Activity (Sus scrofa [1]) [%] | Activity (Sus scrofa [2]) [%] | Activity (Sus scrofa [3]) [%] | Activity (Sus scrofa [4]) [%] | Activity (Sus scrofa [5]) [%] | Activity (Sus scrofa [6]) [%] |
| --- | --- | --- | --- | --- | --- | --- |
| COC(=O)C1=C(C)NC(C)=C(C(=O)OCC(C)C)C1c1ccccc1[N+](=O)[O-] (stereo unspecified) [NISOLDIPINE] | 45 |  |  |  |  |  |
| COc1ccc(-c2nc3ccc(C4=NNC(=O)CC4C)cc3[nH]2)cc1 (stereo unspecified) [PIMOBENDAN] |  | 10 | 85 | -5 | 10 | -20 |
